From publication PMC6479757, “Coralmycin Derivatives with Potent Anti-Gram Negative Activity Produced by the Myxobacteria Corallococcus coralloides M23” (Molecules, 2019)
In brackets after ≈: the same amount, converted by molar mass. Where two headings read alike, the source gives them in different places.

Legend:
[1] = system: Enterococcus faecalis KCTC 5191; test: Antibacterial susceptibility, broth microdilution MIC; assay type: cell-based; conditions: KCTC5191, 24-h incubation at 37 °C
Procedure: (§1) Whole-cell antimicrobial activities were determined using a broth microdilution method described previously. Most of the test strains were grown to mid-log phase in Mueller–Hinton broth and diluted 1,000-fold in the same medium. Cells (10^5/mL) were dispensed at 0.2 mL/well in 96-well microtiter plates. Streptococcus pneumonia and Acinetobacter baumanii were grown in Todd–Hewitt medium and nutrient broth, respectively. […]. Cells were treated with 0.05% DMSO as a vehicle control. The MICs were determined in triplicate by serial two-fold dilutions of the test compounds. […] Bacterial growth was determined by measuring the absorption at 650 nm using a microtiter enzyme-linked immunosorbent assay (ELISA) reader (Molecular Devices Corporation, Sunnyvale, CA, USA).

[2] = system: E. coli CCARM 1356; test: as above; assay type: cell-based; conditions: Escherichia coli, CCARM1356, 24-h incubation at 37 °C
Procedure: as §1

[3] = system: E. coli KCTC 1682; test: as above; assay type: cell-based; conditions: Escherichia coli
Procedure: as §1

[4] = system: MRSA CCARM 3506; test: as above; assay type: cell-based; conditions: Staphylococcus aureus, 24-h incubation at 37 °C
Procedure: as §1

[5] = system: Pseudomonas aeruginosa KCTC 2004; test: as above; assay type: cell-based; conditions: for MIC: KCTC2004, Pseudomonas aeruginosa KCTC 2004, 24-h incubation at 37 °C
Procedure: as §1

[6] = system: QRSA CCARM 3519; test: as above; assay type: cell-based; conditions: Staphylococcus aureus
Procedure: as §1

[7] = system: Klebsiella pneumoniae KCTC 22057; test: as above; assay type: cell-based; conditions: for MIC: KCTC22057, Klebsiella pneumoniae KCTC 22057, 24-h incubation at 37 °C
Procedure: as §1

[8] = system: Streptococcus pneumonia KCTC 5412; test: as above; assay type: cell-based; conditions: Streptococcus pneumoniae, KCTC5412, Todd–Hewitt medium, 24-h incubation at 37 °C
Procedure: as §1

[9] = system: Acinetobacter baumannii KCTC 2508; test: as above; assay type: cell-based; conditions: KCTC2508, nutrient broth, 24-h incubation at 37 °C
Procedure: as §1

[10] = system: QRSA CCARM 3505; test: as above; assay type: cell-based; conditions: Staphylococcus aureus
Procedure: as §1

[11] = system: MRSA CCARM 3167; test: as above; assay type: cell-based; conditions: Staphylococcus aureus, 24-h incubation at 37 °C
Procedure: as §1

[12] = system: Staphylococcus aureus RN 4220; test: as above; assay type: cell-based; conditions: RN4220, 24 h
Procedure: (§2) Whole-cell antimicrobial activities were determined using a broth microdilution method described previously. Most of the test strains were grown to mid-log phase in Mueller–Hinton broth and diluted 1,000-fold in the same medium. Cells (10^5/mL) were dispensed at 0.2 mL/well in 96-well microtiter plates. Streptococcus pneumonia and Acinetobacter baumanii were grown in Todd–Hewitt medium and nutrient broth, respectively. […] Cells were treated with 0.05% DMSO as a vehicle control. The MICs were determined in triplicate by serial two-fold dilutions of the test compounds. […] Bacterial growth was determined by measuring the absorption at 650 nm using a microtiter enzyme-linked immunosorbent assay (ELISA) reader (Molecular Devices Corporation, Sunnyvale, CA, USA).

[13] = target: T1, E. coli DNA gyrase (Escherichia coli, UniProt P0AES4+P0AES6); test: DNA gyrase supercoiling assay; assay type: biochemical
T1 construct: purchased TopoGEN TG2001G
T1 sequence (P0AES4 whole entry, one chain of several): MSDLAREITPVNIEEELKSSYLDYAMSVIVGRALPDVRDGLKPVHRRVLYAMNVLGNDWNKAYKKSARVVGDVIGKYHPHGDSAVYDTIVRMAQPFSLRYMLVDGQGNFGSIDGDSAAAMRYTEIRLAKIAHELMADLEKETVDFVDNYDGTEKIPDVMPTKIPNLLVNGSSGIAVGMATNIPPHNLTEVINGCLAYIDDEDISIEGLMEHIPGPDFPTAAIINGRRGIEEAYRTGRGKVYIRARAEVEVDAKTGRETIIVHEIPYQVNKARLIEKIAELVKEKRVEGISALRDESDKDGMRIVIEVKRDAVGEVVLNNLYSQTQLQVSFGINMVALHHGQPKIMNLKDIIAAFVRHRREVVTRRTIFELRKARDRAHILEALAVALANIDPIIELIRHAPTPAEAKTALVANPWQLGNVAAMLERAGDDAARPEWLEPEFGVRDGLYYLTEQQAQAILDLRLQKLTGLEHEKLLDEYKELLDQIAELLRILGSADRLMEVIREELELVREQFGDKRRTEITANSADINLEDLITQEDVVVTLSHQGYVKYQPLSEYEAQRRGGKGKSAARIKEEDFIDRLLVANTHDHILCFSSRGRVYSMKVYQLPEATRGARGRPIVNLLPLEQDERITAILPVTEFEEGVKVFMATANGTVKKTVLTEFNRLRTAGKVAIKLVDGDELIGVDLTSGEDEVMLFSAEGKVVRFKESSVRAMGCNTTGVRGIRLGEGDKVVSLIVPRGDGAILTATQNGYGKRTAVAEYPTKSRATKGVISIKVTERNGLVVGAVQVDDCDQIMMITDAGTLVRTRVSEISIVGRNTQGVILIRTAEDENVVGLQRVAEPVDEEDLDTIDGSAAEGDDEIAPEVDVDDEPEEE
Procedure: The inhibitory activities of coralmycins on the supercoiling activity of DNA gyrase were investigated using a ‘Purified E. coli DNA Gyrase Drug Screening Kit’ (TopoGEN #TG2001G, Buena Vista, CO, USA). […] The reaction was terminated by the addition of 2 μL of 10% (w/v) SDS and 2 μL of 10× DNA gel loading dye (bromophenol blue). Then, 20 μL of chloroform:isoamyl alcohol (24:1 mixture) was added, and the mixture was vortexed and then centrifuged. The samples in the blue phase were run on 1% (w/v) agarose gel and were visualized using ethidium bromide. All reactions were performed in triplicate. To calculate the IC50 values, the band densities were measured using ImageJ (National Institutes of Health, Bethesda, Maryland, MD, USA).

[14] = system: Gram-negative bacteria; test: Antibacterial activity against Gram-negative bacteria; assay type: cell-based; conditions: at 32 μg/mL
Procedure: as §2

[15] = system: tested bacterial strains; test: Antibacterial activity against all tested strains; assay type: cell-based; conditions: at 32 μg/mL
Procedure: as §2

[16] = KCTC1682, 24-h incubation at 37 °C, Table 6 and Table S1, read-out: MIC
[17] = KCTC1682, Table 7, read-out: MIC, antibacterial activity on E. coli KCTC 1682
[18] = CCARM3519, QRSA CCARM 3519, 24-h incubation at 37 °C, read-out: MIC
[19] = CCARM3505, QRSA CCARM 3505, 24-h incubation at 37 °C, read-out: MIC
[20] = relaxed plasmid, 37 °C for 30 min, agarose gel band densities, read-out: IC50, inhibition of the supercoiling activity of E. coli DNA gyrase

Structure (SMILES): O=C(O)c1cn(C2CC2)c2cc(N3CCNCC3)c(F)cc2c1=O [Cip, Ciprofloxacin, reference compound]
- MIC [1]: 0.5 µg/mL (≈ 1.51 µM)
- MIC [2]: 64 µg/mL (≈ 193 µM)
- MIC [3, 16]: 0.06 µg/mL (≈ 0.181 µM)
- MIC [3, 17]: 0.06 µg/mL (≈ 0.181 µM)
- MIC [4]: 2 µg/mL (≈ 6.04 µM)
- MIC [5]: 0.03 µg/mL (≈ 0.0905 µM)
- MIC ([6]; CCARM3519, 24 h): 128 µg/mL (≈ 386 µM)
- MIC [7]: 0.015 µg/mL (≈ 0.0453 µM)
- MIC [8]: 0.25 µg/mL (≈ 0.754 µM)
- MIC [9]: 0.25 µg/mL (≈ 0.754 µM)
- MIC ([10]; CCARM3505, 24 h): 128 µg/mL (≈ 386 µM)

Structure (SMILES): CO[C@@H](C(=O)O)[C@H](NC(=O)c1ccc(NC(=O)c2ccc([N+](=O)[O-])cc2)cc1)C(=O)Nc1ccc(C(=O)Nc2ccc(C(=O)Nc3ccc(C(=O)O)cc3OC(C)C)c(O)c2OC(C)C)cc1 [Compound 1, Coralmycin C]
- MIC [1]: 8 µg/mL (≈ 8.69 µM)
- MIC [2]: > 32 µg/mL
- MIC [3, 16]: > 32 µg/mL
- MIC [3, 17]: > 32 µg/mL
- MIC [4]: 4 µg/mL (≈ 4.34 µM)
- MIC [5]: > 32 µg/mL
- MIC [6, 18]: 4 µg/mL (≈ 4.34 µM)
- MIC [7]: > 32 µg/mL
- MIC [11]: 4 µg/mL (≈ 4.34 µM)
- MIC [8]: 4 µg/mL (≈ 4.34 µM)
- MIC [9]: > 32 µg/mL
- MIC [10, 19]: 4 µg/mL (≈ 4.34 µM)
- MIC [12]: 4 µg/mL (≈ 4.34 µM)
- IC50 [13, 20]: 420 nM
- antibacterial activity against Gram-negative bacteria [14]: no antibacterial activity

Structure (SMILES): CO[C@@H](C(N)=O)[C@H](NC(=O)c1ccc(NC(=O)c2ccc(N)cc2)cc1)C(=O)Nc1ccc(C(=O)Nc2ccc(C(=O)Nc3ccc(C(=O)O)cc3OC(C)C)c(O)c2OC(C)C)cc1 [Compound 2, Coralmycin D]
- MIC [1]: 1 µg/mL (≈ 1.12 µM)
- MIC [2]: 1 µg/mL (≈ 1.12 µM)
- MIC [3, 16]: 1 µg/mL (≈ 1.12 µM)
- MIC [3, 17]: 1 µg/mL (≈ 1.12 µM)
- MIC [4]: 0.5 µg/mL (≈ 0.562 µM)
- MIC [5]: > 32 µg/mL
- growth inhibition of P. aeruginosa ([5]; at 32 μg/mL): did not inhibit the growth
- MIC [6, 18]: 1 µg/mL (≈ 1.12 µM)
- MIC [7]: > 32 µg/mL
- growth inhibition of K. pneumonia ([7]; at 32 μg/mL): did not inhibit the growth
- MIC [11]: 0.5 µg/mL (≈ 0.562 µM)
- MIC [8]: 2 µg/mL (≈ 2.25 µM)
- MIC [9]: 4 µg/mL (≈ 4.49 µM)
- MIC [10, 19]: 1 µg/mL (≈ 1.12 µM)
- MIC [12]: 0.25 µg/mL (≈ 0.281 µM)
- IC50 [13, 20]: 510 nM

Structure (SMILES): CO[C@@H](C(N)=O)[C@H](NC(=O)c1ccc(N)cc1)C(=O)Nc1ccc(C(=O)Nc2ccc(C(=O)Nc3ccc(C(=O)O)cc3OC(C)C)c(O)c2OC(C)C)cc1 [Compound 3, Coralmycin E]
- MIC [1]: > 32 µg/mL
- MIC [2]: > 32 µg/mL
- MIC [3, 16]: > 32 µg/mL
- MIC [3, 17]: > 32 µg/mL
- MIC [4]: > 32 µg/mL
- MIC [5]: > 32 µg/mL
- MIC [6, 18]: > 32 µg/mL
- MIC [7]: > 32 µg/mL
- MIC [11]: > 32 µg/mL
- MIC [8]: > 32 µg/mL
- MIC [9]: > 32 µg/mL
- MIC [10, 19]: > 32 µg/mL
- MIC [12]: > 32 µg/mL
- IC50 [13, 20]: 39100 nM
- antibacterial activities against any of the tested bacterial strains [15]: no antibacterial activities

Structure (SMILES): CCOc1cc(C(=O)O)ccc1NC(=O)c1ccc(NC(=O)c2ccc(N)cc2)c(OCC)c1O [Compound 4, Coralmycin F]
- MIC [1]: > 32 µg/mL
- MIC [2]: > 32 µg/mL
- MIC [3, 16]: > 32 µg/mL
- MIC [3, 17]: > 32 µg/mL
- MIC [4]: > 32 µg/mL
- MIC [5]: > 32 µg/mL
- MIC [6, 18]: > 32 µg/mL
- MIC [7]: > 32 µg/mL
- MIC [11]: > 32 µg/mL
- MIC [8]: > 32 µg/mL
- MIC [9]: > 32 µg/mL
- MIC [10, 19]: > 32 µg/mL
- MIC [12]: > 32 µg/mL
- IC50 [13]: > 300000 nM

Structure (SMILES): COc1cc(C(=O)O)ccc1NC(=O)c1ccc(NC(=O)c2ccc(N)cc2)c(OC(C)C)c1O [Compound 5, Coralmycin G]
- MIC [1]: > 32 µg/mL
- MIC [2]: > 32 µg/mL
- MIC [3, 16]: > 32 µg/mL
- MIC [4]: > 32 µg/mL
- MIC [5]: > 32 µg/mL
- MIC [6, 18]: > 32 µg/mL
- MIC [7]: > 32 µg/mL
- MIC [11]: > 32 µg/mL
- MIC [8]: > 32 µg/mL
- MIC [9]: > 32 µg/mL
- MIC [10, 19]: > 32 µg/mL
- MIC [12]: > 32 µg/mL
